{
  "source": "patent US20240424053A1",
  "about": "“METHODS AND COMPOSITIONS FOR PROVIDING MYOCARDIAL PROTECTION AND TREATING MYOCARDIAL STRESS AND FIBROSIS” (Tufts Medical Center, Inc., priority 2021, published 2024)",
  "origin": "cited, not measured here",
  "target": "T1, Xa (Homo sapiens, UniProt P00742)",
  "T1 construct": "host or cells: HF patients",
  "T1 sequence (P00742 235-488 limits assumed)": "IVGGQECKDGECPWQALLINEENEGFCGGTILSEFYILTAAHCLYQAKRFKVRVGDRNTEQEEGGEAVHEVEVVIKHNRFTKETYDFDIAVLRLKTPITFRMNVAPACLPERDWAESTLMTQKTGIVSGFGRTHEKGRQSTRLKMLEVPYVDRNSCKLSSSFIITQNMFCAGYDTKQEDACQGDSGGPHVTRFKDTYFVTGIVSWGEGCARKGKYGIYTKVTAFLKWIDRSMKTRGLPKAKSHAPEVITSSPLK",
  "T1 sequence (P00742 41-179 partner limits assumed)": "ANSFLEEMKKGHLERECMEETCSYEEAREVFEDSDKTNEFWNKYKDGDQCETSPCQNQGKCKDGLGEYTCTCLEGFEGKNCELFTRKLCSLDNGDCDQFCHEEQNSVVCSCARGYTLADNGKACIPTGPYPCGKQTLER",
  "details": "in vivo; cited from earlier work",
  "data": [
    {"molecule": "O=C(NC[C@H]1CN(c2ccc(N3CCOCC3=O)cc2)C(=O)O1)c1ccc(Cl)s1", "note": "[rivaroxaban]", "values": [
      {"measurement": "clinical benefit in HF patients", "value": "no clear benefit"}
    ]}
  ]
}
